Where “and” joins values, the source holds several entries; their conditions need not be identical. Equal entries are not always repeated.
Experiments:
Trichoplusia ni [1] = test: In-planta insecticidal efficacy of Pylon (chlorfenapyr) with unsaturated aliphatic acids on sprayed green cabbage plants, Colby synergy factor; assay type: in vivo, Trichoplusia ni (cabbage looper); details: 0.06 mg/mL aliphatic acid (salt)
Protocol: A stock solution for the potassium salt of (2E,4E)-2,4-hexadienoic acid was prepared by dissolving the salt in water to form a 20 mg/mL (20,000 ppm) solution. […] Each experiment was repeated at least 3 times.
(§1) While for SF<1, antagonism is present and for SF=1, the efficacy of the compounds is merely additive.

Trichoplusia ni [2] = test: In-vitro insecticidal efficacy of Pylon (chlorfenapyr) with unsaturated aliphatic acids in artificial diet, Colby synergy factor; assay type: in vivo, Trichoplusia ni (cabbage looper)
Protocol: A stock solution was prepared for each of trans-2-hexenoic acid and trans-3-hexenoic acid (both available from Sigma-Aldrich, St. Louis, Mo., USA), by dissolving each exemplary unsaturated aliphatic acid in 100% dimethylsulfoxide (DMSO) at a concentration of 20 mg/mL (20,000 ppm). A stock solution for the potassium salt of (2E,4E)-2,4-hexadienoic acid was prepared by dissolving the salt in water to form a 20 mg/mL (20,000 ppm) solution.
An artificial diet suitable for Trichoplusia ni (cabbage looper caterpillar) was prepared according to the modified McMorran artificial diet recipe known in the entomology field (containing agar, casein, potassium hydroxide, alphacel, Wesson's salt mix, sugar, toasted wheat germ, choline chloride, ascorbic acid, methyl paraben, aureomycin, linseed oil and vitamin solution).
The treated artificial diet was then used to fill each well of a 24-well treatment plate with approximately 0.5 mL of artificial diet, which was allowed to solidify at room temperature and stored overnight at approximately 4 C. […] Each experiment contained 3 replicates, and was repeated at least 3 times.
as §1

Fusarium oxysporum = test: Synergistic Growth Inhibition Assay (MIC / FIC index, resazurin, 96-well) on Fusarium oxysporum; assay type: cell-based; details: Compound A alone
Protocol: (§2) In some embodiments, the synergistic action between the pesticidal active ingredient, and the at least one C4-C10 (or alternatively C11 or C12) saturated or unsaturated aliphatic acid components of the pesticidal compositions according to embodiments of the present disclosure was tested using a Synergistic Growth Inhibition Assay, which is derived from and related to a checkerboard assay as is known in the art for testing of combinations of antimicrobial agents. In the Synergistic Growth Inhibition Assay used in accordance with some embodiments of the present disclosure, multiple dilutions of combinations of pesticidal active ingredient and at least one C4-C10 saturated or unsaturated aliphatic acid agents are tested in individual cells for inhibitory activity against a target pest or pathogenic organism. In one such embodiment, the combinations of pesticidal active ingredient and C4-C10 (or alternatively C11 or C12) saturated or unsaturated aliphatic acid agents may preferably be tested in decreasing concentrations. In a further such embodiment, the combinations of pesticidal active ingredient and C4-C10 (or alternatively C11 or C12) saturated or unsaturated aliphatic acid agents may be tested in increasing concentrations. These multiple combinations of the pesticidal active ingredient and at least one C4-C10 (or alternatively C11 or C12) saturated or unsaturated aliphatic acid agents may be prepared in 96-well microtiter plates. In one such embodiment, the Synergistic Growth Inhibition Assay then comprises rows which each contain progressively decreasing concentrations of the pesticidal active ingredient and one or more C4-C10 (or alternatively C11 or C12) saturated or unsaturated aliphatic acid agents to test for the MIC of the agents in combination at which growth of the target pest or pathogen is inhibited. Thus, each well of the microtiter plate is a unique combination of the two agents, at which inhibitory efficacy of the combination against the target pest or pathogen can be determined.
(§3) In one embodiment according to the present disclosure, for each row of microtiter cells in the Synergistic Growth Inhibition Assay, the FIC index is calculated from the lowest concentration of the pesticidal active ingredient and one or more C4-C10 saturated or unsaturated aliphatic acid agents necessary to inhibit growth of a target pest or pathogen. The FIC of each component is derived by dividing the concentration of the agent present in that well of the microtiter plate by the minimal inhibitory concentration (MIC) needed of that agent alone to inhibit growth of the target pest or pathogen. The FIC index is then the sum of these values for both agents in that well of the microtiter plate. The FIC index is calculated for each row as follows:
(§4) FICindex=MICa/MICA+MICb/MICB
(§5) Fractional inhibitory concentration indices may then used as measure of synergy. […] When the FIC index is equal to 1, the combination is additive.
(§6) Then, serial dilutions of these initial compositions in successive wells in the row of the microtiter plate were used to assay the pesticidal composition under the same conditions to determine the concentration of the composition combining the two agents corresponding to the microtiter well in which growth inhibition of the target pest or organism ceases.
Resazurin dye (also known as Alamar blue dye) was used as an indicator to determine the presence of growth or inhibition of growth of Fusarium oxysporum in the wells of the 96 well microtiter plates used in the exemplary Synergistic Growth Inhibition Assay. In addition to the color change of the resazurin dye in the presence of growth of the Fusarium oxysporum, an optical or visual examination of the microtiter well may also be made to additionally determine the presence of growth or inhibition of growth of the Fusarium oxysporum.

Botrytis cinerea = test: Synergistic Growth Inhibition Assay (MIC / FIC index, resazurin, 96-well) on Botrytis cinerea; assay type: cell-based
Protocol: as §2, §3, §4, §5, §6
(§7) Similarly to as described above, Resazurin was used as an indicator of growth or inhibition of growth of Botrytis cinerea in the exemplary Synergistic Growth Inhibition Assay. In addition to the color change of the resazurin, an optical or visual examination of the microtiter well may also be made to additionally determine the presence of growth or inhibition of growth of the Botrytis cinerea.

Sclerotinia sclerotiorum = test: Synergistic Growth Inhibition Assay (MIC / FIC index, resazurin, 96-well) on Sclerotinia sclerotiorum; assay type: cell-based; details: Compound A alone
Protocol: as §2, §3, §4, §5, §6
as §7, with “Sclerotinia sclerotiorum” for “Botrytis cinerea”, “Sclerotinia sclerotiorum.” for “Botrytis cinerea.”

[3] = Solubility / effective solubilized concentration in 10% DMSO/90% PDB by HPLC; details: DMSO stock diluted 10-fold in PDB; verified by HPLC
Protocol: This solution was diluted 10-fold in potato dextrose broth (PDB) to give a concentration of 0.05 mg/mL in 10% DMSO/90% PDB.

[4] = aliphatic acid (salt) 0.05 mg/mL
[5] = aliphatic acid (salt) 0.30 mg/mL

CC=CC=CC(=O)[O-].[K+] [2,4-hexadienoic acid, K-salt]
Observed Efficacy (%) (Trichoplusia ni [1]; after 48 hours): 13%
Observed Efficacy (%) (Trichoplusia ni [1]; after 72 hours): 0%

CC=CC=CC(=O)[O-].[K+] [2,4-hexenoic acid-Ksalt]
72 hr Obs. Efficacy (Trichoplusia ni [2]; [4]): 4%
72 hr Obs. Efficacy (Trichoplusia ni [2]; [5]): 13%
90 hr Obs. Efficacy (Trichoplusia ni [2]; [4]): 4%
90 hr Obs. Efficacy (Trichoplusia ni [2]; [5]): 13%
120 hr Obs. Efficacy (Trichoplusia ni [2]; [4]): 4%
120 hr Obs. Efficacy (Trichoplusia ni [2]; [5]): 4%

CO/C=C(/C(=O)OC)c1ccccc1Oc1cc(Oc2ccccc2C#N)ncn1 [Azoxystrobin, reference compound]
MIC (A) (Fusarium oxysporum; 48 hours incubation): 75 µg/mL and 150 µg/mL
MIC (A) (Fusarium oxysporum; Fusarium oxysporum, 2-fold dilutions, incubation period of 48 hours): 150 µg/mL
MIC (A) (Fusarium oxysporum; Fusarium oxysporum, incubation period of 48 hours): 150 µg/mL
MIC (A) (Botrytis cinerea; Compound A alone, 48 hours incubation): 37.5 µg/mL and 75 µg/mL
MIC (A) (Botrytis cinerea; Compound A alone, Botrytis cinerea, incubation period of 2 days): 150 µg/mL
MIC (A) (Botrytis cinerea; Compound A alone, Botrytis cinerea, incubation period of 48 hours): 150 µg/mL
MIC (A) (Botrytis cinerea; Table 45, Compound A = azoxystrobin, alone or in combination with Compound B, 48 hours incubation): 75 µg/mL
MIC (A) (Sclerotinia sclerotiorum; 7 days incubation): 150 µg/mL and 75 µg/mL
MIC (A) (Sclerotinia sclerotiorum; Sclerotinia sclerotiorum, 2-fold dilutions, incubation period of 7 days): 150 µg/mL
MIC (A) (Sclerotinia sclerotiorum; Sclerotinia sclerotiorum, incubation period of 7 days): 150 µg/mL
effective solubilized concentration of working stock solution [3]: 0.15 mg/mL
